Counter-ions that a name gives are not always drawn.

These results are taken from US5556864A, “α-ω-diarylalkane compounds serotonin-2 receptor agonists” (Sankyo Company, Limited, priority 1992, dated 1996).

For one test, the target named is T1, 5-HT2 receptors (Rattus norvegicus, UniProt P14842).
T1 construct: The caudal arteries were dissected free from connective tissue and cut into spiral strips; from tissue; host or cells: rat caudal artery, spiral strips
In words: Vasoconstriction experiment: relaxation of rat caudal artery strips precontracted with 5-HT. The format is cell-based, rat (male Sprague-Dawley). As to conditions: precontracted with 5-HT 3×10^-6 M; concentration causing one half of maximum relaxation (papaverine 10^-4 M = maximum); 37 °C. The procedure: (§1) Vasoconstriction Experiment
(§2) Contractions of the rat caudal ateries were investigated by the method of Van Neuten et al. (J. Pharmacol. Exp. Ther., 218, 217-230, 1981).
(§3) Male Sprague-Dawley rats, each weighing approximately 500 g, were sacrificed by rapid exsanguination. The caudal arteries were dissected free from connective tissue and cut into spiral strips (2×20 mm). The resulting preparations were mounted in organ baths, each containing 10 ml of Tyrode solution maintained at 37° C., and then gassed with a mixture of 95% by volume O2 and 5% CO2. The preparations were allowed to equilibrate for 1 hour before being used in the experiment.
(§4) An initial optimum resting tension of 0.5 g was applied to the preparations, and isometric contractions were recorded with force-displacement transducers. The relaxant effects of the test compounds were determined on preparations which had been precontracted with 5-HT (5-hydroxytryptamine) (3×10^-6 M), which is an agonist of the 5-HT2 receptors, or phenylephrine (10^-6 M), which is an agonist of the adrenaline-α1 receptors. After the constractile response to the 5-HT or the phenylephrine had reached a steady state, the test compound was added cumulatively to the bathing medium. At the end of the experiments, papaverine (10^-4 M) was added to produce the maximum relaxation.
(§5) The relaxation induced by each test compound was calculated as a percentage of the maximum relaxation induced by 10^-4 M of papaverine. The concentrations causing one half of the maximum relaxation (IC50) were calculated by the method of least squares.

For a further test, the system named is adrenaline-α1 receptors. In words: Vasoconstriction experiment: relaxation of rat caudal artery strips precontracted with phenylephrine. The format is cell-based, rat (male Sprague-Dawley). The conditions noted are these: precontracted with phenylephrine 10^-6 M; concentration causing one half of maximum relaxation (papaverine 10^-4 M = maximum); 37 °C; read-out: IC50 adrenalin-α1. The procedure: as §1, §2, §3, §4, §5

T1 sequence (P14842 whole entry): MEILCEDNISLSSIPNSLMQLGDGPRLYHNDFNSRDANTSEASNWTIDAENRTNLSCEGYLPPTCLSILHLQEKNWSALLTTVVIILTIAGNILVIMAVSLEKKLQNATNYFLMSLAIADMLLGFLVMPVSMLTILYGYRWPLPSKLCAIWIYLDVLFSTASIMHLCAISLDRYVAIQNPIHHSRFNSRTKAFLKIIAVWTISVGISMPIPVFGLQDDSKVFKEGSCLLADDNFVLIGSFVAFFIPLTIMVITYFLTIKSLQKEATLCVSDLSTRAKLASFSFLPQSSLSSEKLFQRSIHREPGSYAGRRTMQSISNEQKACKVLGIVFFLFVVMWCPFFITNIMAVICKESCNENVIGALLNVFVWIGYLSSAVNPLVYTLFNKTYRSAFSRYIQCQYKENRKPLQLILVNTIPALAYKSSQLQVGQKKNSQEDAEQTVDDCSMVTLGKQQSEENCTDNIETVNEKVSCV

A word on the IC50: it is the concentration needed to halve the response being measured. As for `COc1cccc(CCc2ccccc2OCCC2CCCCN2C)c1` (stereo not shown) [Example 48, 2-(2-{2-[2-(3-Methoxyphenyl)ethyl]phenoxy}ethyl)-1-methylpiperidine hydrochloride], the IC50 came out at 3.7 nM against 5-HT2 receptors and 2500 nM with adrenaline-α1 receptors.

For `COc1cccc(CCc2ccccc2OCC2CCCN(C)C2)c1` (stereo not shown) [Example 50, 3-{2-[2-(3-Methoxyphenyl)ethyl]phenoxymethyl}-1-methylpiperidine hydrochloride], the IC50 on 5-HT2 receptors is 4.3 nM; in the test on adrenaline-α1 receptors it was 3700 nM. Regarding `COc1cccc(CCc2ccccc2OC[C@@H]2CCCN2C)c1` [Example 58, (S)-2-{2-[2-(3-Methoxyphenyl)ethyl]phenoxymethyl}-1-methylpyrrolidine hydrochloride], the IC50 on 5-HT2 receptors amounted to 5 nM; in the test with adrenaline-α1 receptors, 4900 nM. For `CN1CCCC1CCOc1ccccc1CCc1ccccc1F` (stereo not shown) [Example 97, 2-(2-{2-[2-(2-Fluorophenyl)ethyl]phenoxy}ethyl)-1-methylpyrrolidine hydrochloride] the same measures were 6.5 nM and 860 nM.

For the molecule `CN1CCCC1CCOc1ccccc1CCc1cccc(Br)c1` (stereo not shown) [Example 98, 2-(2-{2-[2-(3-Bromophenyl)ethyl]phenoxy}ethyl)-1-methylpyrrolidine hydrochloride], the IC50 against 5-HT2 receptors was 5.4 nM; with adrenaline-α1 receptors, 2200 nM.

As for `CCOc1cccc(CCc2ccccc2OCCC2CCCN2C)c1` (stereo not shown) [Example 99, 2-(2-{2-[2-(3-Ethoxyphenyl)ethyl]phenoxy}ethyl)-1-methylpyrrolidine hydrochloride], the IC50 against 5-HT2 receptors was 6.1 nM; with adrenaline-α1 receptors it was 1300 nM. On to `CCOc1ccc(CCc2ccccc2OCCC2CCCN2C)cc1` (stereo not shown) [Example 101, 2-(2-{2-[2-(4-Ethoxyphenyl)ethyl]phenoxy}ethyl)-1-methylpyrrolidine hydrochloride], for which the values for the IC50 against 5-HT2 receptors and in the test with adrenaline-α1 receptors were 3.7 nM and 3700 nM, respectively. For `CN1CCCC1CCOc1ccccc1CCc1ccccc1C#N` (stereo not shown) [Example 108, 2-(2-{2-[2-(2-Cyanophenyl)ethyl]phenoxy}ethyl)-1-methylpyrrolidine hydrochloride] the same measures were 2.2 nM and 1700 nM. Turning to `COc1cccc(CCc2ccccc2OCC[C@@H]2CCCN2C)c1` [Example 113, (S)-2-(2-{2-[2-(3-Methoxyphenyl)ethyl]phenoxy}ethyl)-1-methylpyrrolidine hydrochloride], the concentration for half-maximal inhibition (IC50) against 5-HT2 receptors was 2.2 nM; with adrenaline-α1 receptors it was 1200 nM. On 5-HT2 receptors, `CN1CCC[C@H]1CCOc1ccccc1CCc1cccc(OC(F)F)c1` [Example 116, (S)-2-(2-{2-[2-(3-Difluoromethoxyphenyl)ethyl]phenoxy}ethyl)-1-methylpyrrolidine hydrochloride] returned an IC50 of 2.2 nM.

As to `COc1cc(CCc2ccccc2OCC[C@@H]2C[C@@H](O)CN2C)cc(OC)c1` [Example 118, (2R,4R)-4-hydroxy-2-(2-{2-[2-(3,5-dimethoxyphenyl)ethyl]phenoxy}ethyl)-1-methylpyrrolidine], the figures for the IC50 at 5-HT2 receptors and in the test on adrenaline-α1 receptors were 2.6 nM and 5400 nM, respectively. Molecule `COc1cccc(CCc2ccccc2OC[C@H]2CCCNC2)c1` [Example 120, (S)-3-{2-[2-(3-Methoxyphenyl)ethyl]phenoxymethyl}piperidine hydrochloride] yielded an IC50 against 5-HT2 receptors of 4.2 nM. Turning to `COc1cccc(CCc2ccccc2OC[C@H]2CCCN(C)C2)c1` [Example 121, (S)-3-{2-[2-(3-Methoxyphenyl)ethyl]phenoxymethyl}-1-methylpiperidine hydrochloride], the half-inhibitory concentration (IC50) against 5-HT2 receptors came to 2.2 nM.

For the molecule `FC(F)Oc1cccc(CCc2ccccc2OCC2CCCNC2)c1` (stereo not shown) [Example 123, 3-{2-[2-(3-Difluoromethoxyphenyl)ethyl]phenoxymethyl}piperidine hydrochloride], 5.7 nM corresponded to half-maximal inhibition against 5-HT2 receptors (IC50).

Take `CN1CCCC(COc2ccccc2CCc2cccc(OC(F)F)c2)C1` (stereo not shown) [Example 124, 3-{2-[2-(3-Difluoromethoxyphenyl)ethyl]phenoxymethyl}-1-methylpiperidine hydrochloride]: at 5-HT2 receptors, the half-inhibitory concentration (IC50) is 4.6 nM.
